US8614203B2, “Methods for the treatment of a central nervous system injury via a tapered administration protocol” (Emory University, priority 2005, dated 2013)

Tests used:
[1] = test system: medial frontal cortex (MFC) injury or sham; experiment: Example 4: somatosensory neglect of the forepaws; type: in vivo, Sprague-Dawley rats
Text: 60 male Sprague-Dawley rats weighing 290-310 g at the time of injury were used in this experiment. Food and water were provided ad libidum before and after surgery. Animals were handled and weighed daily from their arrival, seven days pre-surgery, to brain extraction three weeks post-surgery. Animals were handled in squads of 12, with n=10 per experimental condition. All animal procedures were approved by the Emory University Animal Care and Use Committee, Protocol #131-2002.
Isofluorane anesthesia was induced for four minutes and 45 seconds at 5% and maintained at 2.5%. Normal body temperature was maintained with a surgical heating pad placed beneath the sterile dressings. The scalp incision area was shaved and sterilized with iodine and isopropanol. A midline incision was made along the scalp and the fascia cleared to expose the surface of the skull. Medial, lateral, and dorsal stereotaxic coordinates were determined at bregma, and a 5-7 mm diameter bilateral craniotomy was performed mid-sagitally, 3 mm anterior to bregma. […] Sutures were used to close the incision after bleeding ceased. Animals were placed in individual heated, clean recovery cages until they awakened, and were returned to clean individual home cages with accessible moistened food pellets. Sham animals were anesthetized, and an incision was made at the top of the head. The fascia was cleared to expose bregma, then the incision was sutured closed. Sham surgeries were matched to lesion surgeries for all experimental conditions.
Sham (S) and lesion (L) animals were randomly assigned to one of three treatment groups: vehicle (VS, VL), acute withdrawal (AWS, AWL), and tapered withdrawal (TWS, TWL). […] Tapering was induced as halved dosages over the last two days of treatment. Dilutions for TW treatments were made with HBC stock. All injections were administered intraperitoneally at one hour post-injury, and subcutaneously at six hours post-injury and every 24 hours through the end of the treatment cycle. Five sets of 12 animals each were used, for a total n=10 for each experimental group over the entire experiment. Of these animals, all were used to acquire behavioral data, four samples were used for protein analysis, and six samples were used for histological analysis for each test condition.
Random order, blinded testing occurred under red light in a quiet environment at one and seven days post-withdrawal, one hour after locomoter activity testing. 1.3 cm diameter circular labels were placed on the left forepaw and the rat placed in the clear plexiglass testing box. The latency required for each rat to remove the sticker with its mouth was recorded, with maximum test duration of two minutes. Each animal was tested three times, with a rest period of two minutes between trials. The testing box was cleaned with 70% ethanol and dried between trials.
All results were expressed as the mean plus or minus the standard error of the mean. Statistical significance was set at p<0.05 for two-tailed tests, and data were analyzed using one-way analysis of variance (ANOVA) followed by LSD post hoc tests. F-values are presented as a preface to post-hoc analysis with all degrees of freedom for Western blotting at (5,18) and for behavior at (5,26).

[2] = test system: bilateral contusions of the medial prefrontal cortex; experiment: Example 1: Morris water maze (MWM) task after TBI; type: in vivo, Sprague-Dawley rats
Procedure: Male Sprague-Dawley rats (300 g) were housed individually in wire cages and kept on a reverse light-dark cycle (0800-2000 h). […] All procedures involving animals conformed to guidelines set forth in the Guide for the Care and Use of Laboratory Animals (U.S. Department of Health and Human Services, Pub no. 85-23, 1985) and were approved by the Emory University Institutional Animal Care and Use Committee.
Bilateral contusions of the medial prefrontal cortex were created by a pneumatic impactor device as previously described. Briefly, rats were given anesthetized with ketamine/xylazine (90 mg/kg; 10 mg/kg) and placed in a stereotaxic apparatus. A craniectomy (diameter 6 mm) was made over the midline of the prefrontal cortex with its center 1.5 mm AP to bregma. After removal of the bone, the tip of the impactor (diameter 5 mm) was moved to +3.0 mm AP; 1.0 mm ML (from bregma), and checked for adequate clearance. Trauma was produced by pneumatically activating the piston to impact −2.0 mm DV (from dura) at a velocity of 3 m/s with a brain contact time of 0.5 seconds.
Control animals received injections of vehicle at similar time-points. Animals were coded with regard to surgery and treatment to prevent experimenter bias during behavioral testing and histological examination.
Experienced individuals who were blind to treatment conditions of the study conducted all histological and behavioral analyses. All data were tested for normality and homoschedasticity before being analyzed by parametric analysis of variance (ANOVA). MWM results were analyzed using separate mixed-factorial (4 groups×5 days) analysis of variance (ANOVA) on each of the two 5-day testing periods (acquisition and retention respectively). Results of the BSN task were analyzed using the mixed-factorial ANOVA (4 groups×2 post-injury trials). Histological comparisons on mean densitometry recordings, area measurements, and cell counts were made using a one-way ANOVA. All between-group comparisons were made using multiple Tukey post-hoc tests (p<0.05) when the overall ANOVA was significant ([…]) between groups. Pearson r coefficients were calculated to determine whether significant correlations could be detected between histological (e.g., lesion size and cellular density) and behavioral parameters (e.g., acquisition and retention of the MWM task and measures of sensory neglect).
Beginning one week after surgery, spatial learning ability was assessed in the Morris water maze (MWM) task described previously. […] Animals were placed in the pool (nose facing the pool-wall) at one of four randomly determined starting positions (e.g.: N, S, E, W). […] Swim speed measures were recorded daily in order to delineate motor dysfunction from learning impairment.

Structure (SMILES): CC(=O)[C@H]1CC[C@H]2[C@@H]3CCC4=CC(=O)CC[C@]4(C)[C@H]3CC[C@]12C [progesterone, pregn-4-ene-3,20-dione]
- somatosensory neglect (latency to remove sticker) ([1]; 16 mg/kg in […] HBC, tapered withdrawal, lesion (TWL), one day and one week post-withdrawal): deficiencies were decreased compared to VL and AWL
- somatosensory neglect (latency to remove sticker) ([1]; 16 mg/kg, acute withdrawal, lesion (AWL), one day and one week post-withdrawal): AWL and VL did not display differences
- somatosensory neglect (latency to remove sticker) ([1]; 16 mg/kg, acute withdrawal, sham (AWS), one day post-withdrawal): elevated sensory deficiencies compared to the TWS and VS groups
- somatosensory neglect (latency to remove sticker) ([1]; 16 mg/kg, acute withdrawal, sham (AWS), one week post-withdrawal): these differences were no longer evident
- somatosensory neglect (latency to remove sticker) ([1]; tapered withdrawal, sham (TWS), one day and one week post-withdrawal): TWS and VS showed no differences
- MWM spatial learning performance, second 5-day trial block (retention) ([2]; 4 mg/kg in peanut oil, 5 days (LP5)): improved spatial learning performance
- MWM spatial learning performance, initial 5-day acquisition phase ([2]; 4 mg/kg in peanut oil, LP3 and LP5 (all injured groups)): deficits in spatial learning performance as compared to control animals
- thigmotaxic (wall-hugging) swim patterns in MWM ([2]; 4 mg/kg, 5 days (LP5), last 2 days of second phase of MWM testing): reduction of thigmotaxic behavior
- swim speed in MWM ([2]; 4 mg/kg, LP3 and LP5, any day of testing): no between-group differences on swim speed measurements
